Results reported in ChEMBL document CHEMBL4130451, “Design and Synthesis of N-Aryl Phenoxyethoxy Pyridinones as Highly Selective and CNS Penetrant mGlu3 NAMs” (ACS Med Chem Lett, 2017).
In brackets after ≈: the same amount, converted by molar mass. Activity calls are given as the source filed them. The calls are words filed in the database; no cut-off is given here.

Tests used:
[1] = target: Metabotropic glutamate receptor 3 (Rattus norvegicus, UniProt P31422); test: Negative allosteric modulation of rat mGlu3 receptor expressed in TREX cells coexpressing Galpha15 assessed as inhibition of glutamate induced-calcium mobilization preincubated for 2.3 mins followed by glutamate addition measured for 2.6 mins by Fluo-4 AM dye based fluorescence assay; format: functional, cell-based
[2] = target: Metabotropic glutamate receptor 5 (Rattus norvegicus, UniProt P31424); test: Positive allosteric modulation of rat mGlu5 receptor expressed in HEK293A cells assessed as increase in glutamate induced-calcium mobilization preincubated for 2.3 mins followed by glutamate addition measured for 1.9 mins by Fluo-4 AM dye based fluorescence assay; format: functional, cell-based
[3] = target: Metabotropic glutamate receptor 2 (Rattus norvegicus, UniProt P31421); test: Negative allosteric modulation of rat mGlu2 receptor expressed in HEK293 cells coexpressing Galpha15 assessed as inhibition of glutamate induced-calcium mobilization preincubated for 2.3 mins followed by glutamate addition measured for 1.9 mins by Fluo-4 AM dye based fluorescence assay; format: functional, cell-based
Cytochrome P450 1A2 = Cytochrome P450 1A2 (Homo sapiens, UniProt P05177); test: Inhibition of CYP1A2 in human liver microsomes using phenacetin as substrate after 15 mins in presence of NADPH by LC/MS/MS analysis; format: ADME
[4] = Fraction unbound in rat brain homogenate at 5 uM after 6 hrs by equilibrium dialysis based LC/MS/MS analysis; format: ADME, tissue-based
[5] = Brain to plasma partition coefficient, Kp of the compound in rat; format: ADME
[6] = Unbound brain-to-plasma concentration ratio in rat; format: ADME; details: read-out: K(p,uu,brain)
[7] = target: Metabotropic glutamate receptor 4 (Rattus norvegicus) (UniProt P31423); test: Negative allosteric modulation of rat mGlu4 receptor expressed in HEK/GIRK cells assessed as inhibition of glutamate induced-calcium mobilization preincubated for 2.3 mins followed by glutamate addition measured for 2.6 mins by Fluo-4 AM dye based fluorescence assay; format: functional, cell-based
[8] = target: Metabotropic glutamate receptor 7 (Rattus norvegicus) (UniProt P35400); test: Negative allosteric modulation of rat mGlu7 receptor expressed in HEK/GIRK cells assessed as inhibition of L-AP4 induced-calcium mobilization preincubated for 2.3 mins followed by L-AP4 addition measured for 2.6 mins by Fluo-4 AM dye based fluorescence assay; format: functional, cell-based
[9] = Kinetic solubility of the compound in PBS at pH 7.4; format: physicochemical; details: read-out: Kinetic_solubility
[10] = Brain to plasma partition coefficient, Kp of the compound in mouse; format: ADME
[11] = Unbound brain to plasma concentration ratio in mouse; format: ADME; details: read-out: K(p,uu,brain)
Mus musculus [12] = test: Antidepressant activity in CD-1 mouse assessed as reduction in immobility time at 3 mg/kg administered ip 15 mins prior to test measured for 6 mins by tail suspension test; format: functional, organism-based
Mus musculus [13] = test: Antidepressant activity in CD-1 mouse assessed as reduction in immobility time administered ip 15 mins prior to test measured for 6 mins by tail suspension test; format: functional; details: CD-1, ip, read-out: MED
[14] = Unbound brain to plasma concentration ratio in Harlan CD-1 mouse at 3 mg/kg, ip by LC/MS-MS analysis; format: ADME, organism-based; details: read-out: K(p,uu,brain)
[15] = target: Adenosine receptor A3 (Homo sapiens) (UniProt P0DMS8); test: Inhibition of human adenosine A3 receptor at 10 uM relative to control
[16] = target: Alpha-1D adrenergic receptor (Homo sapiens) (UniProt P25100); test: Inhibition of human adrenergic alpha 1D receptor at 10 uM relative to control
[17] = target: Beta-2 adrenergic receptor (Homo sapiens) (UniProt P07550); test: Inhibition of human adrenergic beta2 receptor at 10 uM relative to control
[18] = target: B1 bradykinin receptor (Homo sapiens) (UniProt P46663); test: Inhibition of human bradykinin B1 receptor at 10 uM relative to control
[19] = target: B2 bradykinin receptor (Homo sapiens) (UniProt P30411); test: Inhibition of human bradykinin B2 receptor at 10 uM relative to control
[20] = target: L-type calcium channel, benzodiazepine site (Rattus norvegicus, UniProt P22002+P27732+Q02485); test: Inhibition of rat L-type calcium channel benzodiazepine site at 10 uM relative to control; format: protein assay
[21] = target: D(1A) dopamine receptor (Homo sapiens) (UniProt P21728); test: Inhibition of human dopamine D1 receptor at 10 uM relative to control
[22] = target: Endothelin-1 receptor (Homo sapiens) (UniProt P25101); test: Inhibition of human endothelin A receptor at 10 uM relative to control
[23] = target: Endothelin receptor type B (Homo sapiens) (UniProt P24530); test: Inhibition of human endothelin B receptor at 10 uM relative to control
[24] = target: Epidermal growth factor receptor (Homo sapiens) (UniProt P00533); test: Inhibition of human EGF receptor at 10 uM relative to control
Rattus norvegicus [25] = species on record: Rattus norvegicus; test: Inhibition of rat central GABA-A receptor muscimol site at 10 uM relative to control
[26] = target: Glucocorticoid receptor (Homo sapiens) (UniProt P04150); test: Inhibition of human glucocorticoid receptor at 10 uM relative to control
[27] = target: T1, Glutamate NMDA receptor (Rattus norvegicus) (UniProt P35439+Q00959+Q00960+Q00961+Q62645+Q8VHN2+Q9R1M7); test: Inhibition of rat glutamate NMDA receptor agonist binding site at 10 uM relative to control; format: protein-complex assay
[28] = target: T1, Glutamate NMDA receptor (Rattus norvegicus); test: Inhibition of rat glutamate NMDA receptor glycine binding site at 10 uM relative to control; format: protein-complex assay
[29] = target: Histamine H3 receptor (Homo sapiens) (UniProt Q9Y5N1); test: Inhibition of human histamine H3 receptor at 10 uM relative to control
Rattus norvegicus [30] = species on record: Rattus norvegicus; test: Inhibition of central rat I2 receptor imidazoline binding site at 10 uM relative to control
[31] = target: Melatonin receptor type 1A (Homo sapiens) (UniProt P48039); test: Inhibition of human MT1 receptor at 10 uM relative to control
[32] = target: Neuropeptide Y receptor type 1 (Homo sapiens) (UniProt P25929); test: Inhibition of human […] Y1 receptor at 10 uM relative to control
[33] = target: Neuropeptide Y receptor type 2 (Homo sapiens) (UniProt P49146); test: Inhibition of human […] Y2 receptor at 10 uM relative to control
Oryctolagus cuniculus = species on record: Oryctolagus cuniculus; test: Inhibition of rabbit P2X receptor at 10 uM relative to control
Rattus norvegicus [34] = species on record: Rattus norvegicus; test: Inhibition of rat rolipram binding site at 10 uM relative to control
Rattus norvegicus [35] = species on record: Rattus norvegicus; test: Inhibition of rat sodium channel site 2 at 10 uM relative to control
[36] = target: Sodium-dependent dopamine transporter (Homo sapiens) (UniProt Q01959); test: Inhibition of human DAT at 10 uM relative to control
Rattus norvegicus [37] = species on record: Rattus norvegicus; test: Inhibition of rat GABA receptor at 10 uM relative to control
[38] = target: Sodium-dependent noradrenaline transporter (Homo sapiens) (UniProt P23975); test: Inhibition of human NET at 10 uM relative to control
[39] = target: Sodium-dependent serotonin transporter (Homo sapiens) (UniProt P31645); test: Inhibition of human SERT at 10 uM relative to control

Chain of B2 bradykinin receptor (Homo sapiens) (P30411 whole entry): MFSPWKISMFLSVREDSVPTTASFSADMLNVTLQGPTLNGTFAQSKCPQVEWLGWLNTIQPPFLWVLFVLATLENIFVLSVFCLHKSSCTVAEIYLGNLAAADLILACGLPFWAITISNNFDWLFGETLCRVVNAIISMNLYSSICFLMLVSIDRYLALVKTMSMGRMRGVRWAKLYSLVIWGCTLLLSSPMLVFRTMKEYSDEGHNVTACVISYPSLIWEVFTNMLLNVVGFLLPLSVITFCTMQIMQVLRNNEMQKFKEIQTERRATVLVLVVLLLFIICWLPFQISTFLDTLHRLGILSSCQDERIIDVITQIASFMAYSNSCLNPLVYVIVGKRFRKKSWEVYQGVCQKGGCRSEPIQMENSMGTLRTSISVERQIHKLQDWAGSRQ
Chain of Histamine H3 receptor (Homo sapiens) (Q9Y5N1 whole entry): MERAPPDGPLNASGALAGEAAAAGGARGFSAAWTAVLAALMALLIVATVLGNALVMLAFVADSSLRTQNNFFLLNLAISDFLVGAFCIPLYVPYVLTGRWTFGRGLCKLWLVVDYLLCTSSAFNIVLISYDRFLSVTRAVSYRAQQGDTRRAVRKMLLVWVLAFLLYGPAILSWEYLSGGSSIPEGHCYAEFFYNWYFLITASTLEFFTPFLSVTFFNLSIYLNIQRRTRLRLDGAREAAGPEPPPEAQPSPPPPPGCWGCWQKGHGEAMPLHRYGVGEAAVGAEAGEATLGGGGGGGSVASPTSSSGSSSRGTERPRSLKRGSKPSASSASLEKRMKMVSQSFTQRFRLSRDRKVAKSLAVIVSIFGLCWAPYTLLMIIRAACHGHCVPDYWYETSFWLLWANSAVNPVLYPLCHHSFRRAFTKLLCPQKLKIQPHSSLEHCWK
Chain of Metabotropic glutamate receptor 3 (P31422 whole entry): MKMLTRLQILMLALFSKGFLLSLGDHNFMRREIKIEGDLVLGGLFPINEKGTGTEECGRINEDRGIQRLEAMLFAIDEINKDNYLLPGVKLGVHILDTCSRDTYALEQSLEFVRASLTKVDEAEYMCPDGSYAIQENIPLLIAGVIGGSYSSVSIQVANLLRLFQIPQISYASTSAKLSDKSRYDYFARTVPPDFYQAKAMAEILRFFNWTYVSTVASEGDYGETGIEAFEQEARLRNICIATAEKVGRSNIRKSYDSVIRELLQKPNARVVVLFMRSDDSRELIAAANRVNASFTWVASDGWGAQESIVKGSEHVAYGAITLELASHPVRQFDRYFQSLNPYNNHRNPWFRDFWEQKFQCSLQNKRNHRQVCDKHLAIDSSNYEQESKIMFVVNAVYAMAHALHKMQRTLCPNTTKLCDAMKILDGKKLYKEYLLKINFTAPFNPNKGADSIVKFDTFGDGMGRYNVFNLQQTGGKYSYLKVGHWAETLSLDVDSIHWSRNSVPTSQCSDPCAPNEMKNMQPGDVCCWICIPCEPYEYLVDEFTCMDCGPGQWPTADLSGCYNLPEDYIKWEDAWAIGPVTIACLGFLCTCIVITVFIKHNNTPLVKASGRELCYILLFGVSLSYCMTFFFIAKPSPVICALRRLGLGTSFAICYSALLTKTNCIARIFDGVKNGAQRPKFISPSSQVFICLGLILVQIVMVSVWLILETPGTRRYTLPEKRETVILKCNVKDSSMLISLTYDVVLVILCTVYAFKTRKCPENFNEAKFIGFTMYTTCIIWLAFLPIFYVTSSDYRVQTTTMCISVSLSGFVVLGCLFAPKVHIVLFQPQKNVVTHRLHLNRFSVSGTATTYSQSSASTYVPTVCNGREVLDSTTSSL
Chain of Beta-2 adrenergic receptor (Homo sapiens) (P07550 whole entry, looked up): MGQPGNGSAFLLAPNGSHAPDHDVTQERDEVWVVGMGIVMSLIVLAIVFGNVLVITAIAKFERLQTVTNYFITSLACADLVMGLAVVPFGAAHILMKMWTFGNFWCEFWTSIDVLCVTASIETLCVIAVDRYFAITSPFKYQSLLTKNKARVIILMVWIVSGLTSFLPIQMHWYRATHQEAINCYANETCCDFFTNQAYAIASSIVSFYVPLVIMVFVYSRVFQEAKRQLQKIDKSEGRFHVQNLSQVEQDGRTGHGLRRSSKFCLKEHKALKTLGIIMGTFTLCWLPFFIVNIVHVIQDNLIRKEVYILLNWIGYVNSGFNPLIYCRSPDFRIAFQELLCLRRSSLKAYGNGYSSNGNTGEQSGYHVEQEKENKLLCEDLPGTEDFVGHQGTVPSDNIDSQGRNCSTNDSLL
Chain of Endothelin receptor type B (Homo sapiens) (P24530 whole entry): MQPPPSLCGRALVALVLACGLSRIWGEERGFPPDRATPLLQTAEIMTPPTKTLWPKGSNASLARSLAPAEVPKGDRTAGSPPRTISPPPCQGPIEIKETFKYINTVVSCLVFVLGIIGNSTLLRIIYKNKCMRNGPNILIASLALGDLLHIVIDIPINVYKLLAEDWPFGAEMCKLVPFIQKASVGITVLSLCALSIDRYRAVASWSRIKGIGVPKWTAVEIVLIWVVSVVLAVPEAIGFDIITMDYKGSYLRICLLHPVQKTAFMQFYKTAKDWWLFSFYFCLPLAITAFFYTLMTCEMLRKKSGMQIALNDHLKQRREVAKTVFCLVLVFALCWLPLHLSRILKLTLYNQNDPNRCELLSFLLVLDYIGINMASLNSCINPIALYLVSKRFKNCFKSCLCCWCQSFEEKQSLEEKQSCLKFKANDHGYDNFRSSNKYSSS
Chain of B1 bradykinin receptor (Homo sapiens) (P46663 whole entry): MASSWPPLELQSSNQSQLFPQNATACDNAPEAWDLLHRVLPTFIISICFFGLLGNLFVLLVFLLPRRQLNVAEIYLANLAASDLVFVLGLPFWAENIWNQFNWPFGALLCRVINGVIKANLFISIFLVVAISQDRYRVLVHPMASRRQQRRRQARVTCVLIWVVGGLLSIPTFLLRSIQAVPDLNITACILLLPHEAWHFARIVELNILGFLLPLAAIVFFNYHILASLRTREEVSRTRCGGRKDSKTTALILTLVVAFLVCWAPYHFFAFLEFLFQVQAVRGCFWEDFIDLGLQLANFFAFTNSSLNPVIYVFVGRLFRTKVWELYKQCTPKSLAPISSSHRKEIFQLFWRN
Chain of Metabotropic glutamate receptor 2 (P31421 whole entry, looked up): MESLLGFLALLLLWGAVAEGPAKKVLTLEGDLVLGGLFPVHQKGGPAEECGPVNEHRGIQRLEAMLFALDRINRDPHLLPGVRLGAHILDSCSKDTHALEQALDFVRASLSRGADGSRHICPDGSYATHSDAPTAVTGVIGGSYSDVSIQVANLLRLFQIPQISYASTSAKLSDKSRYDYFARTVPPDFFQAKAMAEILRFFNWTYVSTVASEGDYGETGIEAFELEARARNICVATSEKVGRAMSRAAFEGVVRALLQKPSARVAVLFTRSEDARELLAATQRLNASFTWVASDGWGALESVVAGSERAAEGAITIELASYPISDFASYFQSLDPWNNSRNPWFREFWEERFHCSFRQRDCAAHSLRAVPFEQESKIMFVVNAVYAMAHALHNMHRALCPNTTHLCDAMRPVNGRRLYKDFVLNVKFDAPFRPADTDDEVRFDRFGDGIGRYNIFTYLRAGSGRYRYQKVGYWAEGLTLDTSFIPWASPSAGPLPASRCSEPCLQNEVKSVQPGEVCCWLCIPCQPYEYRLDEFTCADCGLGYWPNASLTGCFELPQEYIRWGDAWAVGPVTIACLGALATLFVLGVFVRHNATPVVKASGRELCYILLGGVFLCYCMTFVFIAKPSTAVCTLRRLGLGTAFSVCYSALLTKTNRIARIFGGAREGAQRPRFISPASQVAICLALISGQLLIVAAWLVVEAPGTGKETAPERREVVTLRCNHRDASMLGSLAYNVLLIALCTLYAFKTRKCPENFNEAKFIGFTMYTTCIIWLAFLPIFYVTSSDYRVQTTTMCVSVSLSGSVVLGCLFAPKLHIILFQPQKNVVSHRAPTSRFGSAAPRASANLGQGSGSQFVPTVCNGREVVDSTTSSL
Chain of Cytochrome P450 1A2 (P05177 whole entry): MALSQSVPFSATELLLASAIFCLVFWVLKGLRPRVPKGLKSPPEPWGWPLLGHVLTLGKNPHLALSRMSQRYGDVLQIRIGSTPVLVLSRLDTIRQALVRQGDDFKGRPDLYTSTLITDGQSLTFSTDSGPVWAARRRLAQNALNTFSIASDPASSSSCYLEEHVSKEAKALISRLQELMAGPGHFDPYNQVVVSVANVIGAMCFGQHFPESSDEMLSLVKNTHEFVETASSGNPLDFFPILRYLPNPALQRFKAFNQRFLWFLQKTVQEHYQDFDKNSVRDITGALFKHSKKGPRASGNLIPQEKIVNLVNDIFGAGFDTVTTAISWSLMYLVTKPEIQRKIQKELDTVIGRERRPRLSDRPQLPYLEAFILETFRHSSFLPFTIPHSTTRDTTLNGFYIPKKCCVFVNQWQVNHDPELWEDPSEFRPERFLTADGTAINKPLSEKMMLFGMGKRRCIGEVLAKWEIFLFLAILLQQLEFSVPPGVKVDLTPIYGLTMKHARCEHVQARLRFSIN
Chain of Melatonin receptor type 1A (Homo sapiens) (P48039 whole entry): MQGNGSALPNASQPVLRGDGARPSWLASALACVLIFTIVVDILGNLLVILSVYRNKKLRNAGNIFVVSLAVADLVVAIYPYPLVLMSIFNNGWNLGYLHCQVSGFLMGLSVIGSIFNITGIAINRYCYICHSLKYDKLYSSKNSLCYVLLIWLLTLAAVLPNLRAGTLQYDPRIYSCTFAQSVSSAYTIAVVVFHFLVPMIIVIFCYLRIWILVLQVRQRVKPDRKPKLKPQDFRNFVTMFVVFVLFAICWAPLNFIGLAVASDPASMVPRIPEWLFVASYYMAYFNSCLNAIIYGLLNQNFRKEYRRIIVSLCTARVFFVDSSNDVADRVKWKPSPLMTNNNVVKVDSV
Chain of Adenosine receptor A3 (Homo sapiens) (P0DMS8 whole entry): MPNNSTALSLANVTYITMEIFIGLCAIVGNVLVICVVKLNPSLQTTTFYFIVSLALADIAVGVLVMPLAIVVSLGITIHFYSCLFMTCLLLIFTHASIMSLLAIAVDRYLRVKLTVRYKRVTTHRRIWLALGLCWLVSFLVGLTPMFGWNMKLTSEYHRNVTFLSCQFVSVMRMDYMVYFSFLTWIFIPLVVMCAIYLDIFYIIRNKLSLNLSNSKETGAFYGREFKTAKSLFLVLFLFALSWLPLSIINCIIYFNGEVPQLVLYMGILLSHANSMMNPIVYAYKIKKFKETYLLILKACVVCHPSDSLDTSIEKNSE

Structure (SMILES): C[C@@H](COc1ccn(-c2ccc(F)cc2)c(=O)c1)Oc1ccccc1
- IC50 [1]: 245 nM
- EC50 [2]: > 30 µM
- IC50 [3]: > 30 µM
- IC50 (Cytochrome P450 1A2): > 30 µM
- fraction unbound at 6 h, 5 µM [4]: 0.06
- Kp [5]: 1.15
- Kp uu [6]: 0.4
- inhibition [7]: inactive
- inhibition [8]: inactive
- solubility kinetic [9]: 98 µM (≈ 33.3 µg/mL)
- Kp [10]: 1.17
- Kp uu [11]: 0.26
- Activity (Mus musculus [12]): Active
- minimal effective dose (Mus musculus [13]): 3 mg/kg
- Kp uu [14]: 0.27
- inhibition [15]: > 50%
- inhibition [16]: > 50%
- inhibition [17]: > 50%
- inhibition [18]: > 50%
- inhibition [19]: > 50%
- inhibition at 10 µM [20]: > 50%
- inhibition [21]: > 50%
- inhibition [22]: > 50%
- inhibition [23]: > 50%
- inhibition [24]: > 50%
- inhibition (Rattus norvegicus [25]): > 50%
- inhibition [26]: > 50%
- inhibition [27]: > 50%
- inhibition [28]: > 50%
- inhibition [29]: > 50%
- inhibition (Rattus norvegicus [30]): > 50%
- inhibition [31]: > 50%
- inhibition [32]: > 50%
- inhibition [33]: > 50%
- inhibition (Oryctolagus cuniculus): > 50%
- inhibition (Rattus norvegicus [34]): > 50%
- inhibition (Rattus norvegicus [35]): > 50%
- inhibition [36]: > 50%
- inhibition (Rattus norvegicus [37]): > 50%
- inhibition [38]: > 50%
- inhibition [39]: > 50%
